In the experiment the target is T1, sGC α1/β1 heterodimer (Homo sapiens, UniProt Q02108+Q02153).
T1 construct: expressed in transfected cells; host or cells: CHO-K1 (clone #7, CHO-K1/sGC)
T1 sequence (Q02108 1-690): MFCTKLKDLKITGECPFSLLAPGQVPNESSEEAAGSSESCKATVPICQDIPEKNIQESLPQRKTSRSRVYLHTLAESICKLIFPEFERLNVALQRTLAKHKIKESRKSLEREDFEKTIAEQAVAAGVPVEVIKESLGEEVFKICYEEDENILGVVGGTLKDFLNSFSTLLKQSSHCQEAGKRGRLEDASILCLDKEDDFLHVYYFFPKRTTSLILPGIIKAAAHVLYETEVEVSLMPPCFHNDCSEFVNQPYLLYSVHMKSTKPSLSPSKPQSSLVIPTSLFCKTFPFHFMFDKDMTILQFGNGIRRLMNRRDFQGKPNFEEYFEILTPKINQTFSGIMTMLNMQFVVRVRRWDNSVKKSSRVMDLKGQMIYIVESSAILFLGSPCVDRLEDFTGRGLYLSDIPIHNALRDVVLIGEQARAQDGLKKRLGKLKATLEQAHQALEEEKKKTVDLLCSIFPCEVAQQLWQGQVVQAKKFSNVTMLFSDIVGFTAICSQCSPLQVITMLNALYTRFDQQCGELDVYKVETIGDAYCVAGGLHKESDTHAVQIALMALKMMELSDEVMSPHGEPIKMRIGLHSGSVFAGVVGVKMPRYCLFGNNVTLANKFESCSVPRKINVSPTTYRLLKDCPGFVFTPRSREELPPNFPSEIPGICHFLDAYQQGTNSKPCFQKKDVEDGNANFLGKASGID
T1 sequence (Q02153 1-619): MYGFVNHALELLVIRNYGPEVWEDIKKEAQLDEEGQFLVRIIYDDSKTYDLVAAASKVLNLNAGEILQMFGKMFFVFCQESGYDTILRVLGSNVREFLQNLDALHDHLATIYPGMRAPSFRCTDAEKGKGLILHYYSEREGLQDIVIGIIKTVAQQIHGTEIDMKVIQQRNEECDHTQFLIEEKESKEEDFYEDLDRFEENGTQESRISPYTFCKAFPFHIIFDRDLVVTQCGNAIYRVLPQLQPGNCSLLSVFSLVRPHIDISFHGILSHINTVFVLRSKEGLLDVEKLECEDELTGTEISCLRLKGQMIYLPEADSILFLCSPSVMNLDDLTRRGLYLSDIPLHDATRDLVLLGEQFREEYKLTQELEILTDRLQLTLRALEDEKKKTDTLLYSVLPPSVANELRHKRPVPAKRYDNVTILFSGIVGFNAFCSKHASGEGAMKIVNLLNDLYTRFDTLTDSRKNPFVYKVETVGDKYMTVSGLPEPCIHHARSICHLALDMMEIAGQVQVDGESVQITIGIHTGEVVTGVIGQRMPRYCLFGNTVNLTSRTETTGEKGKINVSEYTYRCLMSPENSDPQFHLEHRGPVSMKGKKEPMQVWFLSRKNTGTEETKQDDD
The experiment is described as follows: Cell-based sGC functional assay (CASA assay): cGMP generation in CHO-K1/sGC cells, HTRF detection. The settings on record: for Emax: CHO-K1, percent activation relative to standard Compound A in CHO-K1/sGC cells, read-out: % Act.; for EC50: inflection point (IP) of cGMP generation in CHO-K1/sGC cells, 4P fit, activity expressed as percentage of Compound A; for % Act.: percent activation relative to standard Compound A in CHO-K1/sGC cells. The source says: Biological Assay 1: Cell-Based sGC Functional Assay (CASA Assay)
sGC is a heme-containing enzyme that converts GTP to secondary messenger cGMP. Increases in cGMP levels affect several physiological processes including vasorelaxation through multiple downstream pathways. […] Heme-dependent activators (HDAs) preferentially activate sGC containing a ferrous heme group. To determine the effect of sGC activators on enzyme activity, the CASA assay was developed to monitor the generation of cGMP in a cell line that stably expresses the heterodimeric sGC protein.
A CHO-K1 cell line stably expressing the sGC α1/β1 heterodimer was generated using a standard transfection protocol. CHO-K1 cells were transfected with plasmids pIREShyghsGCal and pIRESneo-hsGCβ1 simultaneously using FUGENE reagent. Clones that stably express both subunits were selected with hygromycin and neomycin for 2 weeks. Clone #7 was chosen for the assay and was designated CHO-K1/sGC. CHO-K1/sGC cells were maintained in F-K12 medium containing 10% heat-inactivated Fetal Bovine Serum (FBS), 100 μg/mL penicillin/streptomycin, 0.5 mg/mL hygromycin and 0.25 mg/mL G418. The cells were then cryopreserved in LN2. On the day of the assay, cells thawed and resuspended in EBSS Assay Buffer (Sigma, E3024) supplemented with 5 mM MgCl2, 10 mM HEPES (4-(2-hydroxyethyl)piperazine-1-ethanesulfonic acid) and 0.05% BSA (bovine serum albumin) (EAB) and cell density was then adjusted to 4×10^5/mL with EAR IBMX (3-isobutyl-1-methylxanthin, 0.5 mM) was added to inhibit degradation of cGMP. Compounds were diluted from DMSO stock solutions and added to the assay at a final DMSO concentration of 2.5%. Cells were incubated with compounds in the presence and absence of 1 μM of Diethylenetriamine/nitric oxide adduct (DETA-NO; Sigma, 17018) for 1 hr at 37° C. At the end of the incubation period, the reaction was terminated and the cells were lysed with the detection reagents from Cisbio Kits. The level of intracellular cGMP was determined using an HTRF-based assay kit (CisBio, 62GM2PEC), which detects the displacement of a fluorescence labeled cGMP from its specific antibody. The cGMP produced by test compounds was directly compared to the maximum cGMP production (this value was set to equal 100% activation.) of the published sGC-HDA Compound A:
[drawing 597] (Example 1 in WO 2010/065275, published Jun. 10, 2010). The test compounds' activities were then expressed as a percentage of Compound A, the standard in every experiment. This percent activation was calculated either in the presence or absence of DETA-NO which was then plotted. IP and maximum fold induction was derived using ADA analysis software for 4P fit.
The compounds in the Examples of the instant invention had inflection points (IP) less than or equal to 10 μM and more particularly less than or equal to about 1 μM.

A word on the EC50: it is the concentration needed to bring the measured effect to its halfway point. Higher therefore signals weaker potency. Take `CC1(c2ccc(Cl)cc2)C(=O)Nc2nc(-c3cn4ccnc4cn3)nc(N3CCC(C(F)(F)F)C3)c21` (racemic) [Example 279A, 5-(4-chlorophenyl)-2-(imidazo[1,2-a]pyrazin-6-yl)-5-methyl-4-(3-(trifluoromethyl)pyrrolidin-1-yl)-5H-pyrrolo[2,3-d]pyrimidin-6(7H)-one]: the Emax amounted to 69% and the response was half-maximal at 58 nM (EC50).
Taken in the same sequence, the figures for `CC1(C(=O)NC2CC2)C(=O)Nc2nc(-c3cn4ccnc4c(Cc4cccc(F)c4)n3)nc(N)c21` (single isomer, unassigned) [Example 31A, 4-Amino-N-cyclopropyl-2-(8-(3-fluorobenzyl)imidazo[1,2-a]pyrazin-6-yl)-5-methyl-6-oxo-6,7-dihydro-5H-pyrrolo[2,3-d]pyrimidine-5-carboxamide] were 141% and 46 nM.
In the case of `CC1(C(=O)NC2CC2)C(=O)Nc2nc(-c3cn4ccnc4c(Cc4cccc(F)c4)n3)nc(N)c21` (single isomer, unassigned) [Example 36A, 4-amino-N-cyclopropyl-2-(8-(3-fluorobenzyl)imidazo[1,2-a]pyrazin-6-yl)-5-methyl-6-oxo-6,7-dihydro-5H-pyrrolo[2,3-d]pyrimidine-5-carboxamide], a half-maximal response (EC50) required 304 nM and the “% Act.” value turned out to be 151%.
The matching figures for `CC1(C(=O)NC2CC2)C(=O)Nc2nc(-c3cn4ccnc4c(Cc4cccc(F)c4)n3)nc(N)c21` (single isomer, unassigned) [Example 36B, 4-amino-N-cyclopropyl-2-(8-(3-fluorobenzyl)imidazo[1,2-a]pyrazin-6-yl)-5-methyl-6-oxo-6,7-dihydro-5H-pyrrolo[2,3-d]pyrimidine-5-carboxamide]: 959 nM and 154%.
In the case of `Nc1nc(-c2cn3ccnc3c(Cc3cccc(F)c3)n2)nc2c1C(C(=O)NC1CC1)(C1CC1)C(=O)N2` (single isomer, unassigned) [Example 38A, 4-amino-N,5-dicyclopropyl-2-(8-(3-fluorobenzyl)imidazo[1,2-a]pyrazin-6-yl)-6-oxo-6,7-dihydro-5H-pyrrolo[2,3-d]pyrimidine-5-carboxamide], the concentration giving a half-maximal response (EC50) is 61 nM and the “% Act.” value is 124%.
The matching figures for `Nc1nc(-c2cn3ccnc3c(Cc3ccccc3)n2)nc2c1C(C(=O)NC1CC1)(C1CC1)C(=O)N2` (single isomer, unassigned) [Example 40A, 4-amino-2-(8-benzylimidazo[1,2-a]pyrazin-6-yl)-N,5-dicyclopropyl-6-oxo-6,7-dihydro-5H-pyrrolo[2,3-d]pyrimidine-5-carboxamide]: 53 nM and 138%.
For `Nc1nc(-c2cn3ccnc3c(Cc3ccccc3)n2)nc2c1C(C(=O)NC1CC1)(C1CC1)C(=O)N2` (single isomer, unassigned) [Example 40B, 4-amino-2-(8-benzylimidazo[1,2-a]pyrazin-6-yl)-N,5-dicyclopropyl-6-oxo-6,7-dihydro-5H-pyrrolo[2,3-d]pyrimidine-5-carboxamide], the Emax came out at 127% and the concentration for a half-maximal effect (EC50) is 27 nM.
As to `Nc1nc(-c2cn3cc(C(F)(F)F)nc3c(Cc3ccccc3F)n2)nc2c1C(C(=O)NC1CC1)(C1CC1)C(=O)N2` (single isomer, unassigned) [Example 45B, 4-amino-N,5-dicyclopropyl-2-(8-(2-fluorobenzyl)-2-(trifluoromethyl)imidazo[1,2-a]pyrazin-6-yl)-6-oxo-6,7-dihydro-5H-pyrrolo[2,3-d]pyrimidine-5-carboxamide], the Emax came to 75% and the midpoint of the response, the EC50, lay at 217 nM.
With `Nc1nc(-c2cn3ccnc3c(CCC(F)(F)C(F)(F)F)n2)nc2c1C(C(=O)NC1CC1)(C1CC1)C(=O)N2` (single isomer, unassigned) [Example 61B, 4-amino-N,5-dicyclopropyl-6-oxo-2-(8-(3,3,4,4,4-pentafluorobutyl)imidazo[1,2-a]pyrazin-6-yl)-6,7-dihydro-5H-pyrrolo[2,3-d]pyrimidine-5-carboxamide], a half-maximal effect (EC50) was put at 450 nM and the “% Act.” value was 83%.
Taken in the same sequence, the figures for `CCC1(C2CC2)C(=O)Nc2nc(-c3cn4ccnc4c(Cc4ccccc4)n3)nc(N)c21` (single isomer, unassigned) [Example 77A, 4-amino-2-(8-benzylimidazo[1,2-a]pyrazin-6-yl)-5-cyclopropyl-5-ethyl-5H-pyrrolo[2,3-d]pyrimidin-6(7H)-one] were 90 nM and 151%.
The matching figures for `CCC1(C2CC2)C(=O)Nc2nc(-c3cn4ccnc4c(Cc4ccccc4)n3)nc(N)c21` (single isomer, unassigned) [Example 77B, 4-amino-2-(8-benzylimidazo[1,2-a]pyrazin-6-yl)-5-cyclopropyl-5-ethyl-5H-pyrrolo[2,3-d]pyrimidin-6(7H)-one]: 30 nM and 176%.
On to `CC(C)C1(C)C(=O)Nc2nc(-c3cn4ccnc4c(Cc4ccccc4)n3)nc(N)c21` (single isomer, unassigned) [Example 80B, 4-amino-2-(8-benzylimidazo[1,2-a]pyrazin-6-yl)-5-isopropyl-5-methyl-5H-pyrrolo[2,3-d]pyrimidin-6(7H)-one], for which the Emax is 88% and the EC50 stood at 253 nM.
Taken in the same sequence, the figures for `CC1(C2CC2)C(=O)Nc2nc(-c3cn4ccnc4c(Cc4ccccc4)n3)nc(N)c21` (single isomer, unassigned) [Example 82B, 4-amino-2-(8-benzylimidazo[1,2-a]pyrazin-6-yl)-5-cyclopropyl-5-methyl-5H-pyrrolo[2,3-d]pyrimidin-6(7H)-one] were 114% and 473 nM.
Take `CCC1(C)C(=O)Nc2nc(-c3cn4ccnc4c(Cc4ccccc4)n3)nc(N)c21` (single isomer, unassigned) [Example 84B, 4-amino-2-(8-benzylimidazo[1,2-a]pyrazin-6-yl)-5-ethyl-5-methyl-5H-pyrrolo[2,3-d]pyrimidin-6(7H)-one]: the Emax is 100% and it took 180 nM to reach a half-maximal effect (EC50).

The record behind these values is patent publication US9796733B2, “Imidazo-pyrazine derivatives useful as soluble guanylate cyclase activators” (Merck Sharp & Dohme Corp., priority 2014, dated 2017).
